# Results: patent publication US20080268477A1, “Antibody Reactive Specifically to Age Derived from 3,4-Dge” (JMS CO., LTD., priority 2005, published 2008)
# Experiments:
# BSA [1] = target: T1, BSA (Bos taurus, UniProt P02769); assay: appearance (browning) of reaction solution of carbonyl compound and BSA; parameters: species or system bovine; conditions: 25 mM carbonyl compound, BSA 5 mg/ml, 37° C.; for browning of reaction solution: 168 hours
# T1 construct: purchased SIGMA A-0281
# Protocol: AGEs were formed from proteins, BSA, using carbonyl compounds (3,4-DGE, MGO, GO, 3-DG, and Glu). First, BSA (manufactured by SIGMA; Trade Name: A-0281) was dissolved in PBS (pH 7.4) so as to have a concentration of 5 mg/ml (6.2 mM of basic amino acid residues). Thus a BSA solution was prepared. Then each carbonyl compound was added to the BSA solution so as to have a concentration of 25 mM (4-equivalent relative to the basic amino acid residues in the BSA). This was incubated at 37° C. for predetermined times (2, 4, 8, 24, 72, and 168 hours). The respective carbonyl compounds used herein were 500 mM 3,4-DGE aqueous solution (prepared in house), 40% MGO aqueous solution (manufactured by SIGMA), 40% GO aqueous solution (manufactured by Wako Pure Chemical Industries, Ltd.), 3-DG (manufactured by Dojindo Laboratories Co., Ltd.), and Glu (Pharmacopeia, manufactured by San-ei Sucrochemical Co, Ltd.). The BSA solution was incubated in the same manner as described above, with no carbonyl compounds being added thereto. This was used as a control. The appearances of the reaction solutions obtained after 168 hours incubation are shown in the photograph in FIG. 9.
# BSA [2] = target: T1, BSA; assay: ELISA for known AGEs (pentosidine, CML, MRX) in reaction product; parameters: species or system bovine
# Protocol: With respect to the above-mentioned sample solutions obtained using the carbonyl compounds (3,4-DGE, 3-DG, GO, and MGO), it was evaluated by ELISA whether pentosidine, carboxymethyllysine (CML), and Maillard reaction products (MRX: 8-hydroxy-5-methyldihydrothiazolo[3,2-alpha]) that were known AGEs had been produced or not. As a result, in the reaction solution obtained using GO, production of CML of 3.025 molecules per BSA molecule was found already after 24 hours incubation and production of CML of 3.7 molecules per BSA molecule was found after 168 hours incubation. In the reaction solution obtained using MGO, pentosidine of 0.0028 molecule per BSA molecule was found after 168 hours incubation. […] Accordingly, it can be said that the AGEs formed with 3,4-DGE are clearly different from conventionally known AGEs.
# BSA [3] = target: T1, BSA; assay: isoelectric focusing of reaction product; parameters: species or system bovine; conditions: reaction product with BSA
# Protocol: A pI marker was electrophoresed beforehand and then a calibration curve between pI and mobility was created. Then the aforementioned sample solutions also were electrophoresed. With a region stained deepest in each sample being taken as the center of the band, the isoelectric point was calculated using the calibration curve.
# BSA [4] = target: T1, BSA; assay: reactivity with protein by fluorescence intensity (Reference Example 2); parameters: species or system bovine; conditions: 30 mmol/L carbonyl compound, BSA 10 mg/ml, 37° C., 24 hours
# Protocol: BSA was dissolved in PBS (pH 7.4) so as to be 10 mg/ml. Various carbonyl compounds each were added thereto in such a manner as to have a concentration of 30 mmol/L. Then they were allowed to react at 37° C. for 24 hours. After the reaction, denaturation (AGE formation) of the BSA was evaluated according to the fluorescence intensity (at an excitation wavelength of 360 nm and a fluorescence wavelength of 430 nm) of the reaction solutions.
# BSA [5] = target: T1, BSA; assay: fluorescence intensity of reaction solution of carbonyl compound and BSA (Reference Example 1); parameters: species or system bovine; conditions: excitation 360 nm, fluorescence 430 nm
# Protocol: AGEs were formed from proteins, BSA, using carbonyl compounds (3,4-DGE, MGO, GO, 3-DG, and Glu). First, BSA (manufactured by SIGMA; Trade Name: A-0281) was dissolved in PBS (pH 7.4) so as to have a concentration of 5 mg/ml (6.2 mM of basic amino acid residues). Thus a BSA solution was prepared. Then each carbonyl compound was added to the BSA solution so as to have a concentration of 25 mM (4-equivalent relative to the basic amino acid residues in the BSA). This was incubated at 37° C. for predetermined times (2, 4, 8, 24, 72, and 168 hours). […]
# The reaction solutions incubated as described above were sampled and these reaction solutions thus sampled were applied to desalting columns (Trade Name: PD-10, manufactured by Amersham Pharmacia Biotech) to be desalted. With respect to the reaction solutions thus desalted, the BSA concentration was measured using BCA protein assay kit (manufactured by Pierce). […] Then the fluorescence intensity was measured at an excitation wavelength of 360 nm and a fluorescence wavelength of 430 nm (measuring apparatus: Trade Name SPECTRAFLUOR PLUS, manufactured by TECAN). […]
# BSA [6] = target: T1, BSA; assay: amino acid analysis of Arg and Lys residues in reaction product; parameters: species or system bovine; conditions: residual ratio vs untreated native BSA
# Protocol: The aforementioned sample solutions were freeze-dried and then were acid-hydrolyzed in 6N hydrochloric acid (120° C., 24 hours). According to a conventionally known method, these were derivatized with dansyl chloride and were isolated with HPLC. Then the amounts of arginine (Arg) and lysine (Lys) residues in the samples were determined (n=3). FIG. 11(A) is a graph showing the residual ratios of the Arg residues, while FIG. 11(B) is a graph showing the residual ratios of the Lys residues. The residual ratio indicates a percentage that is obtained with the amount of residues in untreated native BSA being taken as 100%.
# BSA [7] = target: T1, BSA; assay: SDS-PAGE of reaction product; parameters: species or system bovine; conditions: samples of 2 to 168 hours reaction
# Protocol: The samples obtained using 3,4-DGE and MGO each were subjected to SDS-PAGE. The results are shown in the electrophoretograms in FIG. 13. […] The lanes show the results with respect to the molecular-weight marker, native BSA, and samples (2, 4, 8, 24, 72, and 168 hours) sequentially from the left.
# [8] = test system: Human peritoneal mesothelial cells (HPMCs); assay: cytotoxic test of AGE-proteins (WST-1); format: cell-based; conditions: 1 mg/mL AGE-protein, four days
# Protocol: In order to examine the biological activities of AGE-proteins derived from various carbonyl compounds, a cytotoxic test was carried out. The AGE-proteins used herein were 3,4-DGE-BSA, MGO-BSA, GO-BSA, and AA-BSA that had been prepared in the same manner as in Example 3.
# Human peritoneal mesothelial cells (HPMCs) that had been suspended in FBS-M199 medium were seeded into a 96-well plate (manufactured by Iwaki) in an amount of 3400 cells/well and then were cultured overnight. Adherent cells in each well were exposed to M199 medium (0.1 ml/well) containing 8.4% FBS in which AGE-proteins had been dissolved in such a manner as to be 1 mg/mL, and were cultured for four days. After completion of the exposure, the medium was removed. Thereafter, the adherent cells were cultured in M199 medium containing a 10% chromogenic substrate (Trade Name: WST-1; manufactured by TAKARA BIO, INC.). Then the absorbance at a wavelength of 450 nm was measured 40 minutes later and thereby the viable cell count was determined. The result is shown in the graph in FIG. 15. In FIG. 15, “DGE-BSA” denotes “3,4-DGE-BSA”.
# T1 sequence (P02769 25-607): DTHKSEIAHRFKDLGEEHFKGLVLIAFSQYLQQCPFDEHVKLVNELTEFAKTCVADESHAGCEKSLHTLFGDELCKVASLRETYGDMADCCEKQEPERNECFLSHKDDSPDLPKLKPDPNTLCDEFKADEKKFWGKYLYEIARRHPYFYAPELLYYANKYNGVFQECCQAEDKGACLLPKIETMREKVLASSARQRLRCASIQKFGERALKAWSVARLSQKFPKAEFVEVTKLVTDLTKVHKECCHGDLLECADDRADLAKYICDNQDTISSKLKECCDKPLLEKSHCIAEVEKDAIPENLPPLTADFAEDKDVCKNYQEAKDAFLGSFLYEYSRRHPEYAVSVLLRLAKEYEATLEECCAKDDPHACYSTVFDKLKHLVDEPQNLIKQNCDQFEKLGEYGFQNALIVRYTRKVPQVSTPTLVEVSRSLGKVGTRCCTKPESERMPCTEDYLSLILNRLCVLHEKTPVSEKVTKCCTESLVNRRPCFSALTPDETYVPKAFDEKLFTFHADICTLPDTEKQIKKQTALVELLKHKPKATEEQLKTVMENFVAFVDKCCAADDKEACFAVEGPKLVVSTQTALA
compound,measurement,setting,value
"CC(=O)C=O [MGO, methylglyoxal]",browning of reaction solution,BSA [1],observed
same,pentosidine,BSA [2]; after 168 hours incubation,0.0028 molecule per BSA molecule
"O=CC(=O)C=CC(O)CO (stereo not shown) [3,4-DGE, 3,4-dideoxyglucosone-3-ene]",change in isoelectric point,BSA [3],shift toward the acidic side after 24 hours reaction
same,fluorescence of BSA solution (AGE formation),BSA [4],very strong fluorescence
same,time until reaction solution was colored,BSA [1],approximately two
same,browning of reaction solution,BSA [1],deep brown
same,reaction time at which fluorescence nearly achieved equilibrium,BSA [5],~24 h
same,fluorescence intensity,BSA [5]; compared to other carbonyl compounds,very high fluorescence intensity
same,free Arg and Lys residues in reaction product,BSA [6],reduced
same,"production of CML, pentosidine, MRX",BSA [2]; ELISA of reaction solution,"production of neither CML, pentosidine, or MRX was found"
same,change in SDS-PAGE band,BSA [7],disturbance in the band is observed after 2 to 4 hours reaction
"3,4-DGE-BSA: AGE-protein formed from bovine serum albumin with 3,4-DGE",activity of the cells (viable cell count),[8],approximately 25%
"O=CC(=O)C[C@H](O)[C@H](O)CO [Example 3-DG, 3-deoxyglucosone]",browning of reaction solution,BSA [1],observed
"O=CC=O [GO, glyoxal]",browning of reaction solution,BSA [1],observed
same,production of CML,BSA [2]; after 24 hours incubation,3.025 molecules per BSA molecule
same,production of CML,BSA [2]; after 168 hours incubation,3.7 molecules per BSA molecule
